# Patent publication US20110152228A1, “SPRAYABLE PHARMACEUTICAL COMPOSITIONS COMPRISING A CORTICOID AND AN OILY PHASE” (Galderma, S.A., priority 2005, published 2011)
# Experiments:
# [1] = Maximum solubility of clobetasol propionate in solvent oils, UV assaying method; format: physicochemical
# Protocol: (§1) The maximum solubility of clobetasol propionate was studied in various solvent oils according to the invention, in order to allow the choice most suitable for the concentration of active agent to be solubilized.
# It is measured by the UV assaying method.
# Saturated solutions are prepared according to the following protocol:
# 0.1% of clobetasol propionate is added to the oily excipient.
# The entire mixture is stirred overnight and then left for two hours without stirring.
# The solutions for UV-assaying are then prepared by taking the supernatant 0.1 g of this saturated solution is weighed into a 100 ml volumetric flask and then made up to 100 ml with absolute ethanol. The assaying makes it possible to obtain data for maximum solubility of the active agent in the solvent oil under consideration.
# [2] = Maximum solubility of clobetasol propionate in solvent oils, assessed visually (clarity/cloudiness); format: physicochemical
# Protocol: as §1
# The solubility can also be assessed visually. Thus, minute proportions of the active agent are gradually added to the solvent oil with stirring. Visual observation of the clarity of the solution is carried out.
smiles,measurement,setting,value
CCC(=O)O[C@]1(C(=O)CCl)[C@@H](C)C[C@H]2[C@@H]3CCC4=CC(=O)C=C[C@]4(C)[C@@]3(F)[C@@H](O)C[C@@]21C [clobetasol propionate],UV Solubility at 266 nm,[1]; solvent: Cetearyl isononanoate,0.16%
same,UV Solubility at 266 nm,[1]; solvent: Dioctyl ether,0.12%
same,UV Solubility at 266 nm,[1]; solvent: Ethyl oleate,0.79%
same,UV Solubility at 266 nm,[1]; solvent: Isopropyl palmitate,0.17%
same,UV Solubility at 266 nm,[1]; solvent: Oleic acid,0.45%
same,UV Solubility at 266 nm,[1]; solvent: Oleyl alcohol,0.86%
same,Visual solubility,"[2]; solvent: Caprylic/capric triglycerides, maximum solubility",0.25%
same,Visual solubility,[2]; solvent: Dioctyl ether,insoluble
same,Visual solubility,"[2]; solvent: Isopropyl palmitate, maximum solubility",0.14%
same,Visual solubility,"[2]; solvent: Octyldodecanol, maximum solubility",0.16%
